Structures are written as SMILES.

A short description of data set [1]: log P determination by LC-MS in the acidic range (HCOOH). As to conditions: LC-MS column with aqueous formic acid/acetonitrile gradient, pH 2.7, 0.1% aqueous formic acid and acetonitrile. The class given is physicochemical. Here is the method: The LC-MS determination in the acidic range is carried out at pH 2.7 using 0.1% aqueous formic acid and acetonitrile (contains 0.1% formic acid) as mobile phases; linear gradient from 10% acetonitrile to 95% acetonitrile.
Calibration is carried out using unbranched alkan-2-ones (with 3 to 16 carbon atoms) with known log P values (determination of the log P values by the retention times using linear interpolation between two successive alkanones).

Data set [2] relates to green peach aphid (Myzus persicae). Description: Myzus test (MVZUPE spray treatment). The class given is in vivo. Conditions: after 6 days, Chinese cabbage leaf discs. The procedure: (§1) To produce a suitable preparation of active compound, one part by weight of active compound is mixed with the stated amounts of solvents and emulsifier, and the concentrate is diluted with emulsifier-containing water to the desired concentration.
Discs of Chinese cabbage leaves (Brassica pekinensis) which are infested by all stages of the green peach aphid (Myzus persicae) are sprayed with an active compound preparation of the desired concentration.
(§2) After 6 days, the effect in percent is determined. 100% means that all aphids have been killed; 0% means that none of the aphids have been killed.

Data set [3] deals with larvae of the mustard beetle (Phaedon cochleariae). In words: Phaedon test (PHAECO spray treatment). The class given is in vivo. As to conditions: application rate 500 g/ha, after 7 days, Chinese cabbage leaf discs. Here is the method:
[table] To produce a suitable preparation of active compound, one part by weight of active compound is mixed with the stated amounts of solvents and emulsifier, and the concentrate is diluted with emulsifier-containing water to the desired concentration. Discs of Chinese cabbage leaves (Brassica pekinensis) are sprayed with an active compound preparation of the desired concentration and, after drying, populated with larvae of the mustard beetle (Phaedon cochleariae).

Data set [4] concerns caterpillars of the armyworm (Spodoptera frugiperda). Description: Spodoptera frugiperda test (SPODFR spray treatment). As to conditions: after 6 days, maize leaf discs. The class given is in vivo. Here is the method:
as §1
Discs of maize leaves (Zea mays) are sprayed with an active compound preparation of the desired concentration and, after drying, populated with caterpillars of the armyworm (Spodoptera frugiperda).
as §2

Regarding `CCOC(=O)C1(OC(=O)Cc2c(C)cc(C)cc2C)CCN(OC)CC1` [II-1], the chromatographic logP in data set [1] stood at 4.28.

As to `CON1CCC2(CC1)OC(=O)C(c1cc(-c3ccc(Cl)cc3)ccc1C)=C2O` [I-a-4], the “activity (aphids killed)” value in data set [2] (application rate 500 g/ha) came out at 100%. For the same compound, the “activity (beetle larvae killed)” value in data set [3] is recorded as 100%. As to `CCc1cc(C)cc(CC)c1C1=C(O)C2(CCN(OC)CC2)OC1=O` [I-a-10], in data set [2] (application rate 500 g/ha), the “activity (aphids killed)” value is recorded as 100%.

In data set [1], `CCOC(=O)C1(O)CCN(OC)CC1` [XIV-1] showed a chromatographic logP of 0.94. For `CCON1CCC2(CC1)OC(=O)C(c1c(CC)cc(C)cc1CC)=C2O` [I-a-11], the “activity (aphids killed)” value in data set [2] (application rate 500 g/ha) turned out to be 100%. For the compound `CCON1CCC2(CC1)OC(=O)C(c1c(C)cc(C)cc1C)=C2O` [I-a-7], the “activity (aphids killed)” value in data set [2] (application rate 500 g/ha) amounted to 100%. As to `CCc1cc(-c2ccc(Cl)cc2)cc(C)c1C1=C(O)C2(CCN(OC)CC2)OC1=O` [I-a-6], the “activity (beetle larvae killed)” value in data set [3] is reported as 100%. In the case of `CON1CCC2(CC1)OC(=O)C(c1c(C)ccc(-c3ccc(Cl)cc3)c1C)=C2O` [I-a-5], the “activity (aphids killed)” value in data set [2] (application rate 100 g/ha) is 100%. The “activity (killed)” value in data set [4] (application rate 500 g/ha) is on record as no less than 80%. Turning to `CCON1CCC2(CC1)OC(=O)C(c1c(C)ccc(-c3ccc(Cl)cc3)c1C)=C2O` [I-a-12], the “activity (aphids killed)” value in data set [2] (application rate 500 g/ha) turned out to be 100%. Also, the “activity (killed)” value in data set [4] (application rate 100 g/ha) is reported as no less than 100%. In the case of `CCc1cc(C)cc(C)c1C1=C(O)C2(CCN(OC)CC2)OC1=O` [I-a-3], the “activity (aphids killed)” value in data set [2] (application rate 500 g/ha) is 100%.

For `CON1CCC2(CC1)OC(=O)C(c1c(C)ccc(-c3ccc(F)cc3)c1C)=C2O` [I-a-9], the “activity (aphids killed)” value in data set [2] (application rate 500 g/ha) worked out at 100%.

As for `CCON1CCC2(CC1)OC(=O)C(c1cc(-c3ccc(Cl)cc3)ccc1C)=C2O` [I-a-13], the “activity (aphids killed)” value in data set [2] (application rate 500 g/ha) is reported as 100%. In data set [3], the “activity (beetle larvae killed)” value was 100%.

Take `CON1CCC2(CC1)OC(=O)C(c1c(C)cc(C)cc1C)=C2O` [I-a-1]: the chromatographic logP in data set [1] is 2.15. In data set [1], `CCOC(=O)C1(O)CCN(OCC)CC1` [XIV-2] came in with a chromatographic logP of 1.16.

These data come from patent US8592610B2, “Spiroheterocyclic tetronic acid derivatives” (Bayer CropScience AG, priority 2009, dated 2013).
